Values of other authors as cited in patent US11944640B2, “Zinc-[gamma]-PGA compositions and methods for treating cancer” (XYLONIX PTE. LTD., priority 2016, dated 2024).

How the values were obtained:
[1] = test system: folate receptor (FR), FR-α and FR-β; details: FR-α vs FR-β
[2] = test system: androgen-dependent LNCaP and androgen-independent PC3, DU145 prostate cancer cell lines; details: micromolar concentrations (1-10 μM)
rats = details: 9˜14 days of dietary administration (240 ppm)
[3] = test system: leukocyte-originating cells, including murine thymocytes, murine splenic lymphocytes, human Ramos B, and human Jurkat T cells; details: nanomolar concentrations

affinity for folate receptor isoforms (selectivity) [1] | Compound | mode of cell death [2] | toxicity (rats) | mode of cell death [3]
higher affinity for FR-α over FR-β | CN(CC1CNc2nc(N)[nH]c(=O)c2N1C)c1ccc(C(=O)N[C@@H](CCC(=O)O)C(=O)O)cc1 (stereo partly shown) [DMTHF, N^5,N^10-dimethyl tetrahydrofolate] | – | – | –
– | zinc pyrithione | elicited ATP-depletion and, eventually, ERK and PKC-dependent necrosis | acute neurological toxicity | induced zinc-specific apoptosis
